# Values joined by “and” are separate entries in the source; they are usually repeats but may differ in a detail not shown here. Equal entries are not always repeated.
# Tests used:
# phenylbenzoquinone (PBQ) = test: analgesic activity, phenylbenzoquinone (PBQ) challenge; assay type: in vivo; settings: male Swiss mouse, oral
# Description: The analgesic activity was determined in the male Swiss mouse using phenylbenzoquinone (PBQ) as the challenging agent (variation of the method of Siegmund et al, Proc. Soc. Exp. Biol. Med. […], 95, 729-31). […] The ED50 was determined by the method of Lichfield and Wilcoxon.
# Wistar rat = test: oral toxicity (mortality) in the Wistar rat; assay type: in vivo
# Description: (§1) The percentages of mortality produced by the compounds of this invention when administered orally to Swiss mice are shown in Table 1. The animals, free from specific pathogenic organisms were housed in an air conditioned room for 24 to 48 hours before the start of the experiment. They were separated into groups of 5 males and 5 females. The materials were administered to animals which had been fasted for 24 hours by means of a gastric tube in suspension in a 6% thickened julep using a volume equivalent to 0.1 ml per 10 g of body weight. […] They remained under observation for two weeks before being sacrificed and autopsied.
# The toxicities of the compounds of Examples 2 and 3 were determined in the Wistar rat. The protocol which was followed was the same as that described for the mice, except that the compounds were administered in a volume equivalent to 0.5 ml per 100 g of body weight of rat. […] The product of Example 3 produced no mortality at 2000 mg/kg and 20% mortality at 3000 mg/kg.
# stomachs = test: ulcerogenic activity; assay type: in vivo, female Wistar rat; settings: 150 mg/kg daily
# Description: The ulcerogenic activity was determined in the female Wistar rat using a variation of the procedure described by J. M. Lwoff, J. Pharmacol. 1971, 3, 1, 81-3. The test substance was administered daily for 3 days to the animals maintained on a aqueous diet. The stomachs were removed after 1, 2, and 3 days of treatment and the ulcerations were classified from 0 to 4. The ulceration index is calculated for each group of animals as the product (average of the classes x the percentage of animals afflicted), while distinguishing acute ulcerations from ulcers which were in the process of healing.
# [1] = test system: carrageenan-induced granulomas; test: activity on carrageenan-induced granulomas; assay type: in vivo, Male Wistar rats; settings: for ED50: Rattus norvegicus, 24 h, dose which protects 50% of the animals to the extent of 30% with respect to wet weight of the granuloma, read-out: AD50 (the source's name)
# Description: Male Wistar rats weighing 130 to 150 grams were given a subcutaneous injection in the central part of the skin of the back of 0.5 ml of an aqueous suspension of carrageenan. Two doses of the test substance are administered, one 30 minutes before and the other 6 hours after carrageenan. At the end of 24 hours the rats were sacrificed and the granulomas were removed and weighed before and after drying for 24 hours at 50° C. The difference in weight of the granulomas wet and dry represents the exudate
# These AD50 are respectively 175(142-215) and 175(150-205) mg/kg.
# cotton pellet granulomas = test: inhibition of cotton pellet granulomas; assay type: in vivo, male Sprague-Dawley rats; settings: oral, daily for 10 days
# Description: Two cotton pellets weighing 70 mg were implanted under the back skin of male Sprague-Dawley rats anesthetized with ether. Starting the next day, the compound was administered orally daily for 10 days. The rats were sacrificed and the pellets were removed and weighed before and after drying at 50° C. for 24 hours. The weights used were those obtained after deduction of the weight of the implants. The average of the quantities so calculated was determined for each group and compared to the averages of the control group.
# [2] = oral toxicity (mortality) in the mouse; settings: in vivo, Swiss mice
# Description: as §1
# [3] = test system: edema produced by serotonin; test: inhibition of serotonin-induced edema; assay type: in vivo, Wistar rat; settings: oral, 30 minutes before serotonin
# Description: In the Wistar rat inflammation is induced by intrapedal injection of 0.1 ml of a 0.02% solution of serotonin in physiological serum. The test substance is administered orally 30 minutes before the serotonin and the edema is measured by plethysmometry one hour after its release.
# solubility in water = assay type: physicochemical
# blood sugar level = test: antidiabetic activity, blood sugar level in streptozotocin hyperglycemic rats; assay type: in vivo, Female rats; set-up: key: NS: the difference between the blood sugar level in the treated animals and the control animals is not significant; the difference is significant by Student's test at p≤0.05; settings: oral
# Description: Female rats weighing 180-200 grams were given an intraperitoneal dose on day J0 of 100 mg/kg of streptozotocin in a 0.05 M citrate buffer at a pH of 4.5 calculated as 0.5 ml per 100 g of body weight. On day J2 hyperglycemic animals were selected by determining the blood sugar level by the orthotoludine method in a stream continuously removed from the retroorbital sinus. […] On day J3, without previous fasting, the selected animals received the treatment. This consisted of oral administration of the test compound in a 6% aqueous suspension of gum arabic at a volume of 0.5 ml per 100 g of body weight.
# The animals were sacrificed one, two, or four hours after the treatment and their blood sugar levels were determined. Each group of animals was compared to a control group of animals which received only the suspension of gum arabic. Metformin was the substance chosen as the control.
# The results are given in Table 8 which indicates the percentage of decrease in the blood sugar level produced by the treatment.
# [4] = 50 mg/kg, treatment 1 h before sacrificing
# [5] = 50 mg/kg, treatment 2 h before sacrificing
# [6] = 50 mg/kg, treatment 4 h before sacrificing
# [7] = 100 mg/kg, treatment 1 h before sacrificing
# [8] = 100 mg/kg, treatment 2 h before sacrificing
# [9] = 100 mg/kg, treatment 4 h before sacrificing
# [10] = 200 mg/kg, treatment 1 h before sacrificing
# [11] = 200 mg/kg, treatment 2 h before sacrificing
# [12] = 200 mg/kg, treatment 4 h before sacrificing
smiles,measurement,setting,value
"Cc1ccc(C=Nc2ccc3c(c2)OCO3)s1 [Example 2, N-(5-methyl-2-thienylidene)-5-aminobenzodioxole-1,3]",% analgesic activity,phenylbenzoquinone (PBQ); 100 mg/kg,19%
same,% analgesic activity,phenylbenzoquinone (PBQ); 200 mg/kg,49%
same,% analgesic activity,phenylbenzoquinone (PBQ); 250 mg/kg,51%
same,% analgesic activity,phenylbenzoquinone (PBQ); 300 mg/kg,40%
same,mortality (in words),Wistar rat; 3000 mg/kg,no mortality
same,"Ulceration Index, acute",stomachs; Day 1,6
same,"Ulceration Index, healing",stomachs; Day 1,0
same,"Ulceration Index, acute",stomachs; Day 2,2
same,"Ulceration Index, healing",stomachs; Day 2,6
same,"Ulceration Index, acute",stomachs; Day 3,48
same,"Ulceration Index, healing",stomachs; Day 3,28
same,"Exudate, % activity",[1]; 100 mg/kg administered twice,31%
same,"Exudate, % animals 30% protected",[1]; 100 mg/kg administered twice,62%
same,"Exudate, % animals 30% protected",[1]; 150 mg/kg administered twice,25% and 14%
same,"Weight of dry granuloma, % animals 30% protected",[1]; 150 mg/kg administered twice,25% and 14%
same,"Weight of wet granuloma, % animals 30% protected",[1]; 150 mg/kg administered twice,25% and 14%
same,"Exudate, % activity",[1]; 200 mg/kg administered twice,39%
same,"Exudate, % animals 30% protected",[1]; 200 mg/kg administered twice,75%
same,"Weight of dry granuloma, % activity",[1]; 200 mg/kg administered twice,41% and 22%
same,"Weight of dry granuloma, % animals 30% protected",[1]; 200 mg/kg administered twice,75% and 50%
same,"Weight of wet granuloma, % activity",[1]; 200 mg/kg administered twice,39% and 24%
same,"Weight of wet granuloma, % animals 30% protected",[1]; 200 mg/kg administered twice,75% and 50%
same,"Exudate, % activity",[1]; 300 mg/kg administered twice,18%
same,"Exudate, % animals 30% protected",[1]; 300 mg/kg administered twice,2%
same,"Weight of dry granuloma, % activity",[1]; 300 mg/kg administered twice,9%
same,"Weight of dry granuloma, % animals 30% protected",[1]; 300 mg/kg administered twice,25%
same,"Weight of wet granuloma, % activity",[1]; 300 mg/kg administered twice,18%
same,"Weight of wet granuloma, % animals 30% protected",[1]; 300 mg/kg administered twice,25%
same,ED50,[1],175 mg/kg
same,% inhibition with respect to dry pellets,cotton pellet granulomas; dose 150,5%
same,% inhibition with respect to wet pellets,cotton pellet granulomas; dose 150,12%
same,% inhibition with respect to dry pellets,cotton pellet granulomas; dose 300,23%
same,% inhibition with respect to wet pellets,cotton pellet granulomas; dose 300,17%
same,mortality at 336 h,[2]; 750 mg/kg,10%
same,mortality at 336 h,[2]; 1000 mg/kg,20%
same,mortality at 336 h,[2]; 1250 mg/kg,0%
same,mortality at 336 h,[2]; 1500 mg/kg,60%
same,% inhibitory activity on serotonin edema,[3]; 100 mg/kg,39%
same,% inhibitory activity on serotonin edema,[3]; 200 mg/kg,29%
same,% inhibitory activity on serotonin edema,[3]; 400 mg/kg,37%
same,solubility in water,solubility in water,insoluble in water
same,Percentage Decrease in the Blood Sugar,blood sugar level; [4],13%
same,Percentage Decrease in the Blood Sugar,blood sugar level; [5],22%
same,Percentage Decrease in the Blood Sugar,blood sugar level; [6],12%
same,Percentage Decrease in the Blood Sugar,blood sugar level; [7],22%
same,Percentage Decrease in the Blood Sugar,blood sugar level; [8],32%
same,Percentage Decrease in the Blood Sugar,blood sugar level; [9],27%
same,Percentage Decrease in the Blood Sugar,blood sugar level; [10],24%
same,Percentage Decrease in the Blood Sugar,blood sugar level; [11],35%
same,Percentage Decrease in the Blood Sugar,blood sugar level; [12],31%
"C(=Nc1ccc2c(c1)OCO2)c1cccnc1 [Example 3, N-(3-pyridylidene)-5-aminobenzodioxole-1,3]",% analgesic activity,phenylbenzoquinone (PBQ); 50 mg/kg,23%
same,% analgesic activity,phenylbenzoquinone (PBQ); 100 mg/kg,44%
same,% analgesic activity,phenylbenzoquinone (PBQ); 200 mg/kg,65%
same,% analgesic activity,phenylbenzoquinone (PBQ); 300 mg/kg,92%
same,ED50,phenylbenzoquinone (PBQ); method of Lichfield and Wilcoxon,110 mg/kg
same,mortality (in words),Wistar rat; 2000 mg/kg,no mortality
same,"Ulceration Index, acute",stomachs; Day 1,6
same,"Ulceration Index, healing",stomachs; Day 1,0
same,"Ulceration Index, acute",stomachs; Day 2,20
same,"Ulceration Index, healing",stomachs; Day 2,6
same,"Ulceration Index, acute",stomachs; Day 3,33
same,"Ulceration Index, healing",stomachs; Day 3,12
same,"Exudate, % activity",[1]; 100 mg/kg administered twice,15% and 25%
same,"Exudate, % animals 30% protected",[1]; 100 mg/kg administered twice,25% and 37%
same,"Weight of dry granuloma, % activity",[1]; 100 mg/kg administered twice,12% and 22%
same,"Weight of wet granuloma, % activity",[1]; 100 mg/kg administered twice,15% and 25%
same,"Weight of wet granuloma, % animals 30% protected",[1]; 100 mg/kg administered twice,25% and 37%
same,"Exudate, % activity",[1]; 200 mg/kg administered twice,27% and 34% and 38%
same,"Weight of dry granuloma, % activity",[1]; 200 mg/kg administered twice,27% and 32% and 33%
same,"Weight of wet granuloma, % activity",[1]; 200 mg/kg administered twice,27% and 33% and 34%
same,"Exudate, % activity",[1]; 250 mg/kg administered twice,36%
same,"Exudate, % animals 30% protected",[1]; 250 mg/kg administered twice,75%
same,"Weight of dry granuloma, % activity",[1]; 250 mg/kg administered twice,33%
same,"Weight of dry granuloma, % animals 30% protected",[1]; 250 mg/kg administered twice,62%
same,"Weight of wet granuloma, % activity",[1]; 250 mg/kg administered twice,36%
same,"Weight of wet granuloma, % animals 30% protected",[1]; 250 mg/kg administered twice,75%
same,"Exudate, % activity",[1]; 300 mg/kg administered twice,35% and 43%
same,"Exudate, % animals 30% protected",[1]; 300 mg/kg administered twice,87% and 75%
same,"Weight of dry granuloma, % activity",[1]; 300 mg/kg administered twice,37% and 41%
same,"Weight of dry granuloma, % animals 30% protected",[1]; 300 mg/kg administered twice,62% and 75%
same,"Weight of wet granuloma, % activity",[1]; 300 mg/kg administered twice,35% and 43%
same,"Weight of wet granuloma, % animals 30% protected",[1]; 300 mg/kg administered twice,87% and 75%
same,ED50,[1],175 mg/kg
same,% inhibition with respect to dry pellets,cotton pellet granulomas; dose 150,5%
same,% inhibition with respect to wet pellets,cotton pellet granulomas; dose 150,0%
same,mortality at 336 h,[2]; 500 mg/kg,0%
same,mortality at 336 h,[2]; 1000 mg/kg,10%
same,mortality at 336 h,[2]; 2000 mg/kg,100%
same,% inhibitory activity on serotonin edema,[3]; 100 mg/kg,27%
same,% inhibitory activity on serotonin edema,[3]; 200 mg/kg,21%
same,% inhibitory activity on serotonin edema,[3]; 400 mg/kg,26%
same,solubility in water,solubility in water,insoluble in water
same,Percentage Decrease in the Blood Sugar,blood sugar level; [4],16%
same,Percentage Decrease in the Blood Sugar,blood sugar level; [5],NS
same,Percentage Decrease in the Blood Sugar,blood sugar level; [6],23%
same,Percentage Decrease in the Blood Sugar,blood sugar level; [7],NS
same,Percentage Decrease in the Blood Sugar,blood sugar level; [8],27%
same,Percentage Decrease in the Blood Sugar,blood sugar level; [9],29%
same,Percentage Decrease in the Blood Sugar,blood sugar level; [10],NS
same,Percentage Decrease in the Blood Sugar,blood sugar level; [11],19%
same,Percentage Decrease in the Blood Sugar,blood sugar level; [12],28%

# — patent US4333938A, “Imino derivatives of 5-aminobenzodioxole-1,3 which are useful as medicaments” (Laboratoires Sarget, priority 1979, dated 1982)
